Consider seven compounds from patent US20120316186A1, “DEAZAPURINES USEFUL AS INHIBITORS OF JANUS KINASES” (priority 2006, published 2012).

The term pKi denotes the negative decadic logarithm of the Ki, by convention in mol/L.

Each structure is given as a SMILES string. pKi: −log10 of the molar value. Where only a bound is given, the exact number is not on record here.

One experiment deals with T1, JAK3 (Homo sapiens, UniProt P52333).
T1 sequence (P52333 1-1124): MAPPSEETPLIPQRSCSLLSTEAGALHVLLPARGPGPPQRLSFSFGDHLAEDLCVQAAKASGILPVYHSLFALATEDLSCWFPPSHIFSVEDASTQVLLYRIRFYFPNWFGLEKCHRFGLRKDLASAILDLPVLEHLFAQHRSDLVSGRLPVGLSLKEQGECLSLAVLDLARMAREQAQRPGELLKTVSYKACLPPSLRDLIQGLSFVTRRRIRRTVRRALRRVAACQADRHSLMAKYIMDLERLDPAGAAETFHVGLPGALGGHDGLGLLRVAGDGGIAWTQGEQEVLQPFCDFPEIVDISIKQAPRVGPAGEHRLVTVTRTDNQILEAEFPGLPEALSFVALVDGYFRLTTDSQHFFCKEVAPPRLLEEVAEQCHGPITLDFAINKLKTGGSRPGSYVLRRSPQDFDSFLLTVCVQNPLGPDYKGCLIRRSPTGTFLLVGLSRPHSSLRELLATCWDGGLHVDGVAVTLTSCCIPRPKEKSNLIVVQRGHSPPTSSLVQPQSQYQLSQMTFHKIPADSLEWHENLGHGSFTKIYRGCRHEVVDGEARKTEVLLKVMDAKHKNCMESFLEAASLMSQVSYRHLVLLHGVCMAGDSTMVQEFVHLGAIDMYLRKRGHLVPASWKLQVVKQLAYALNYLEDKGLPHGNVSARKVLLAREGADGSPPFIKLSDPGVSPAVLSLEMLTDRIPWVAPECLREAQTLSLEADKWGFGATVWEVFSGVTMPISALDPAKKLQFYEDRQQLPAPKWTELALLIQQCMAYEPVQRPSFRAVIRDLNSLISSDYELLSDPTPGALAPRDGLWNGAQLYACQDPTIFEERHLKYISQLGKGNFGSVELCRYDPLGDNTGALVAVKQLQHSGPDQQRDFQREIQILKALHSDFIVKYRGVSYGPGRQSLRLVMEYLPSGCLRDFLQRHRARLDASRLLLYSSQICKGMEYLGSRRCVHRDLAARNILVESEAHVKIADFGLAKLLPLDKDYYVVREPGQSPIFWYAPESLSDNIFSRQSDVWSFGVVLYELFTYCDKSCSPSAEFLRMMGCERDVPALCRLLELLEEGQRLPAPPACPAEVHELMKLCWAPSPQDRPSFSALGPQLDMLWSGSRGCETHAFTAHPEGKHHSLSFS
The experiment can be described thus: JAK3 Inhibition Assay. In kind it is biochemical. The following applies: 1 μM poly(Glu)4Tyr, 5 μM ATP, 1 nM JAK3, 25° C.; read-out: JAK3 enzyme inhibition data (Ki). The method, then: (§1) Compounds were screened for their ability to inhibit JAK3 using the assay shown below. Reactions were carried out in a kinase buffer containing 100 mM HEPES (pH 7.4), 1 mM DTT, 10 mM MgCl2, 25 mM NaCl, and 0.01% BSA. Substrate concentrations in the assay were 5 μM ATP (200 uCi/μmole ATP) and 1 μM poly(Glu)4Tyr. Reactions were carried out at 25° C. and 1 nM JAK3.
(§2) To each well of a 96 well polycarbonate plate was added 1.5 μl of a candidate JAK3 inhibitor along with 50 μl of kinase buffer containing 2 μM poly(Glu)4Tyr and 10 μM ATP. This was then mixed and 50 μl of kinase buffer containing 2 nM JAK3 enzyme was added to start the reaction. After 20 minutes at room temperature (25° C.), the reaction was stopped with 50 μl of 20% trichloroacetic acid (TCA) that also contained 0.4 mM ATP. The entire contents of each well were then transferred to a 96 well glass fiber filter plate using a TomTek Cell Harvester. After washing, 60 μl of scintillation fluid was added and ^33P incorporation detected on a Perkin Elmer TopCount.

The target of the next experiment is JAK2 (Homo sapiens, UniProt O60674). The experiment can be described thus: JAK2 Inhibition Assay. The format is biochemical. The conditions noted are these: 15 μM poly(Glu)4Tyr, 12 μM ATP; read-out: JAK2 enzyme inhibition data (Ki). The method, then: as §1, §2
Chain of JAK2 (O60674 whole entry): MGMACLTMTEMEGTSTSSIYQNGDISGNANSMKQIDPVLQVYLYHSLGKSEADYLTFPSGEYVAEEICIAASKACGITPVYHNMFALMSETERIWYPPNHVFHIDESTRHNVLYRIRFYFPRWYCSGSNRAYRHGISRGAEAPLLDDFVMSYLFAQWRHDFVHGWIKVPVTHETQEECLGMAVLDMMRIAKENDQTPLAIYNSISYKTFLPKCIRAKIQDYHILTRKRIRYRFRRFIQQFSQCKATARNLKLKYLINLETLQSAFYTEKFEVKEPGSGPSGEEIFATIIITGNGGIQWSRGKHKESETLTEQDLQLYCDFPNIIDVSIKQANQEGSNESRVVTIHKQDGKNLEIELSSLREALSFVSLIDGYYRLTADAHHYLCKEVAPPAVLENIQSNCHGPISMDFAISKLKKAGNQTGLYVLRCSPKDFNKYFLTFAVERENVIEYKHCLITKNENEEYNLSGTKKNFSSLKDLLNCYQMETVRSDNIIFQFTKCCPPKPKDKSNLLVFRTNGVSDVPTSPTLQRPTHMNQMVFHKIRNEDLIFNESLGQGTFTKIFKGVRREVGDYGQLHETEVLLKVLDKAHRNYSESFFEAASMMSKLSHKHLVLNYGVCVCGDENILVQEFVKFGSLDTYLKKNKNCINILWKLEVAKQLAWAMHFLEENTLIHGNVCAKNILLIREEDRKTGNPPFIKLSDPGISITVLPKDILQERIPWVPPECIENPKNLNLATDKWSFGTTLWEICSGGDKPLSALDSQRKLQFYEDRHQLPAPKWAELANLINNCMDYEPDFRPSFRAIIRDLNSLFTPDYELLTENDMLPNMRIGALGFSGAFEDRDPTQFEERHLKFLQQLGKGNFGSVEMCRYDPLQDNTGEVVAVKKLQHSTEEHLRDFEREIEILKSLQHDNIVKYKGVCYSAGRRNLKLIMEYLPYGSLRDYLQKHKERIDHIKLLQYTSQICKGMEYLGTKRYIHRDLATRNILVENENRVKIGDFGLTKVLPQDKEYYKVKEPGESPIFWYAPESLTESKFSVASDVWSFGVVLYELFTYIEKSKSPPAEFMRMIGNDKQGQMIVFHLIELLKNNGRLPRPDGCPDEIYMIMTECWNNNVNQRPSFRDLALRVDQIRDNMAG
The assays were as described above in Example 36 except that JAK-2 enzyme was used, the final poly(Glu)4Tyr concentration was 15 μM, and final ATP concentration was 12 μM.

Take `CC(CC(=O)Nc1nc(-c2ncnc3[nH]ccc23)cs1)CC(C)(C)C` (centres unmarked) [Compound 33]: the pKi on JAK3 is 6.30 to 7.00; at JAK2, above 7.00.
For `O=C(Nc1nc(-c2ncnc3[nH]ccc23)cs1)C1CCCOC1` (centres unmarked) [Compound 61] the same measures were above 7.00 and above 7.00.
For `O=C(c1cc(-c2ncnc3[nH]ccc23)c[nH]1)N(CCC(F)(F)F)CC1CC1` [Compound 110] the same measures were above 7.00 and above 7.00.
On to `N#CCCN(C(=O)c1cc(-c2ncnc3[nH]ccc23)c[nH]1)C1CCCC1` [Compound 139], for which the pKi is 6.30 to 7.00 on JAK3 and above 7.00 on JAK2.
`O=C(O)CC1(CC(=O)Nc2nc(-c3ncnc4[nH]ccc34)cs2)CCCC1` [Compound 143]: the pKi on JAK3 and on JAK2 was 6.30 to 7.00 each time.
Turning to `O=C(O)C1CCCCC1C(=O)Nc1nc(-c2ncnc3[nH]ccc23)cs1` (centres unmarked) [Compound 144], the negative logarithm of the Ki (pKi) at JAK3 and at JAK2 was 6.30 to 7.00 in each case.
For the compound `O=C(Cc1ccccc1F)Nc1nc(-c2ncnc3[nH]ccc23)cs1` [Compound 156], the pKi was 6.30 to 7.00 at JAK3 and above 7.00 on JAK2.
